From patent US6919424B2, “Binding peptides for carcinoembryonic antigen (CEA)” (Dyax Corp., priority 2000, dated 2005)
Bridge positions count the residues as written; N and C are the ends. Ends that are not written are not given here. Peptide text beside a SMILES is read from it. * marks the point of attachment. 5FAM = O=C1OC2(c3ccc(O)cc3Oc3cc(O)ccc32)c2ccc(C(=O)*)cc21

Tests used:
H6NA3 = target: T1, H6NA3 (Homo sapiens, UniProt P06731); experiment: Fluorescence anisotropy direct binding to H6NA3 / NA3
T1 construct: H6NA3, consisting of a hexahistidine leader and the N and A3 domains of CEA, was used
T1 sequence (P06731 35-144 limits assumed): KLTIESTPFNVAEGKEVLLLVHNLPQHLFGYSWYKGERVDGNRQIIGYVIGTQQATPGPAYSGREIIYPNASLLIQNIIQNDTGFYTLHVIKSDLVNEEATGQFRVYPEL
T1 sequence (P06731 501-588 limits assumed): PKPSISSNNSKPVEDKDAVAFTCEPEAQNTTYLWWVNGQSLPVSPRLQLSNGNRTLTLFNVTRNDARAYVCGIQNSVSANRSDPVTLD
Description: (§1) Each peptide was also provided with a C-terminal amide-functional linker useful for immobilizing peptides to various chromatographic substrates: -Ala18-Pro19-Gly20-Gly-Glu-Gly-Gly-Gly-Ser-Lys-CONH2 (SEQ ID NO:28). […] Aliquots of each peptide were fluorescently labeled using NHS-fluorescein reacted with the ε-amino side group of the C-terminal lysine.
Dissociation constants were determined using fluorescence anisotropy, through direct binding measurements and competition experiments. In direct binding assays, the concentration of the fluorescein-labeled peptide is held constant and the concentration of H6NA3 is varied. In the competition experiment, the concentration of the fluorescein-labeled peptide and the H6NA3 target are held constant and the concentration of a competitor (cT84.66, unlabeled) is varied. The change in anisotropy is fit to the appropriate equation via nonlinear regression to obtain the apparent Kd.
Aliquots of each peptide were fluorescently labeled using NHS-fluorescein reacted with the ε-amino side group of the C-terminal lysine.
Dissociation constants were determined using fluorescence anisotropy, through direct binding measurements (see Example 6).
as §1, with “Peptides including the binding domain of the CEA binder Isolates were synthesized by solid-phase synthesis. Each” for “Each”
Dissociation constants were determined using fluorescence anisotropy, through direct binding measurements to either NA-3 or CEA in PBS with 0.01% TWEEN 20. […] Isolate 304A-12-H12, previously isolated from Lib2 and assayed for binding, was analyzed in parallel as a control. […] KD standard error values are calculated from the nonlinear regression (SIGMAPLOT, SPSS Science, Chicago, Ill.).

NA3 = target: T2, NA3 (Homo sapiens, UniProt P06731); experiment: Phage ELISA with varying amounts of NA3 per well (FIGS. 2, 4, 5); type: binding; settings: FIG. 2; 100, 50, 10, 5, 1, 0 ng per well
T2 construct: H6NA3, consisting of a hexahistidine leader and the N and A3 domains of CEA, was used
T2 sequence (P06731 35-144 limits assumed): T1 sequence (P06731 35-144 limits assumed)
T2 sequence (P06731 501-588 limits assumed): T1 sequence (P06731 501-588 limits assumed)
Description: The first bar for each sample represents wells each having 100 ng CEA. Successive bars represent 50 ng, 10 ng, 5 ng, 1 ng, and 0 ng CEA per well.
The first bar for each sample represents wells each having 30 ng NA3. Successive bars represent 10 ng, 3 ng, and 0 ng NA3 per well.
Several Isolates gave especially strong ELISA signals and these were tested further.
Several Isolates gave especially strong ELISA signals and these were tested further. […] Isolate 304A-12-H12 (designated DX306) was assayed in parallel as a basis for comparison.

CEA = target: T3, CEA (Homo sapiens, UniProt P06731); experiment: Fluorescence anisotropy direct binding to CEA; settings: for binding to CEA (in words): compared with binding to NA3
T3 construct: purchased
T3 sequence (P06731 35-676): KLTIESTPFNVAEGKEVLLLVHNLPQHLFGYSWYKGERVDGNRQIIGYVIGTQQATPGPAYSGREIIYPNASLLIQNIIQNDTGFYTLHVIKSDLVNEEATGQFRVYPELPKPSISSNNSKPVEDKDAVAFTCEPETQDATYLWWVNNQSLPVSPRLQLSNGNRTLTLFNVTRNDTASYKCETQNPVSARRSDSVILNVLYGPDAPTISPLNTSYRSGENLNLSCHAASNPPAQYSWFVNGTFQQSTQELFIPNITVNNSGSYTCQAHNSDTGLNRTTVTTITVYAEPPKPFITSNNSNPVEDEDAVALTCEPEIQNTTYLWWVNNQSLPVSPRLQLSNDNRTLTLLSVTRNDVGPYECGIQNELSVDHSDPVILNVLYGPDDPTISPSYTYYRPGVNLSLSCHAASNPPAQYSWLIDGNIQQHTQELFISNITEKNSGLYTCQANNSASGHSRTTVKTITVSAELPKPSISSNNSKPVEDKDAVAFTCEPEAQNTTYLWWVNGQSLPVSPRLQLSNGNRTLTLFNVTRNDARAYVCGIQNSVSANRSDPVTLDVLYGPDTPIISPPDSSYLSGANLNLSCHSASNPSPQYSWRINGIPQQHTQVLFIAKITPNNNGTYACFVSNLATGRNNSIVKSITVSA
Description: Dissociation constants were determined using fluorescence anisotropy, through direct binding measurements to either NA-3 or CEA in PBS with 0.01% TWEEN 20. In direct binding assays, the concentration of the fluorescein-labeled peptide is held constant and the concentration of NA3 is varied. In the competition experiment, the concentration of the fluorescein-labeled peptide and the NA3 target are held constant and the concentration of competitor peptide (from Isolate 12-H12) is varied. The change in anisotropy is fit to the appropriate equation via nonlinear regression to obtain the apparent Kd. Isolate 304A-12-H12, previously isolated from Lib2 and assayed for binding, was analyzed in parallel as a control. Replicate analyses were run for certain binders and are reported to confirm accuracy and precision of measurements. KD standard error values are calculated from the nonlinear regression (SIGMAPLOT, SPSS Science, Chicago, Ill.).

Molecule | phage ELISA binding profile to varying amounts of NA3 (NA3) | binding to CEA (in words) (CEA) | also measured
CC(C)C[C@H](NC(=O)[C@@H](NC(=O)[C@H](CC(=O)O)NC(=O)[C@@H]1CSSC[C@H](NC(=O)[C@@H](NC(=O)[C@H](Cc2c[nH]c3ccccc23)NC(=O)[C@H](CC(=O)O)NC(=O)[C@@H](N)CO)C(C)C)C(=O)N[C@@H](CCC(=O)O)C(=O)N[C@@H](Cc2ccc(O)cc2)C(=O)N[C@@H](Cc2ccccc2)C(=O)N[C@@H](CCCCN)C(=O)N[C@@H](CC(N)=O)C(=O)N[C@@H](CCC(N)=O)C(=O)N[C@@H](Cc2c[nH]c3ccccc23)C(=O)N[C@@H](Cc2ccccc2)C(=O)N1)[C@@H](C)O)C(=O)N[C@@H](C)C(=O)N1CCC[C@H]1C(=O)NCC(=O)NCC(=O)N[C@@H](CCC(=O)O)C(=O)NCC(=O)NCC(=O)NCC(=O)N[C@@H](CO)C(=O)N[C@@H](CCCCNC(=O)c1ccc2c(c1)C(=O)OC21c2ccc(O)cc2Oc2cc(O)ccc21)C(N)=O [Hybrid H12/A12, DWVCEYFKNQWFCDTL] | – | – | CEA binding characteristics compared with other isolates (H6NA3; direct binding KD, Table 7): comparable to the Isolates obtained from the initial library screen
DWICNLFKNQWFCGPL (CEA binding polypeptide) [Isolate 304A-15-E04] | at least as good as G08 and A07 | – | –
CC[C@H](C)[C@@H]1NC(=O)[C@H](Cc2ccccc2)NC(=O)[C@H](CCC(=O)O)NC(=O)[C@@H](NC(=O)[C@@H](NC(=O)[C@H](Cc2c[nH]c3ccccc23)NC(=O)[C@H](CC(=O)O)NC(=O)[C@@H](N)CO)C(C)C)CSSC[C@@H](C(=O)N[C@@H](CC(N)=O)C(=O)N[C@H](C(=O)N[C@@H](CC(C)C)C(=O)N[C@@H](C)C(=O)N2CCC[C@H]2C(=O)NCC(=O)NCC(=O)N[C@@H](CCC(=O)O)C(=O)NCC(=O)NCC(=O)NCC(=O)N[C@@H](CO)C(=O)N[C@@H](CCCCNC(=O)c2ccc3c(c2)C(=O)OC32c3ccc(O)cc3Oc3cc(O)ccc32)C(N)=O)C(C)C)NC(=O)[C@H](Cc2ccccc2)NC(=O)[C@H](Cc2c[nH]c3ccccc23)NC(=O)[C@H](CCC(N)=O)NC(=O)[C@H](CO)NC(=O)[C@H](CCCCN)NC1=O [Isolate 315A-17-G08] (H-SDWVCEFIKSQWFCNVLAPGGEGGGSK(5FAM)-NH2; disulfide 5-14; N-terminus assumed) | – | effectively bound CEA, but not as strongly as they bound NA3 | –
DWVCNLFKNQWFCDVP (CEA binding polypeptide) [Isolate 304A-14-B02] | at least as good as G08 and A07 | – | –
DWVCENKKDQWTCNLL (cysteine pairing not given here) [Isolate A07] | drops off very quickly as the amount of NA3 drops below 50 ng per well | – | –
CC(C)C[C@@H]1NC(=O)[C@H](CC(N)=O)NC(=O)[C@@H](NC(=O)[C@@H](NC(=O)[C@H](Cc2c[nH]c3ccccc23)NC(=O)[C@H](CC(=O)O)NC(=O)[C@@H](N)CO)C(C)C)CSSC[C@@H](C(=O)N[C@@H](CC(=O)O)C(=O)N[C@H](C(=O)N[C@@H](CC(C)C)C(=O)N[C@@H](C)C(=O)N2CCC[C@H]2C(=O)NCC(=O)NCC(=O)N[C@@H](CCC(=O)O)C(=O)NCC(=O)NCC(=O)NCC(=O)N[C@@H](CO)C(=O)N[C@@H](CCCCNC(=O)c2ccc3c(c2)C(=O)OC32c3ccc(O)cc3Oc3cc(O)ccc32)C(N)=O)[C@@H](C)O)NC(=O)[C@H](Cc2ccccc2)NC(=O)[C@H](Cc2c[nH]c3ccccc23)NC(=O)[C@H](CCC(N)=O)NC(=O)[C@H](CC(N)=O)NC(=O)[C@H](CCCCN)NC(=O)[C@H](Cc2ccccc2)NC1=O [Isolate 304A-14-A12, DWVCNLFKNQWFCDTL] | do not drop off so quickly | – | increase in affinity compared to the Isolate G08 peptide (H6NA3; from KD of Table 7 versus Table 3): several fold increase in affinity
NWVCNLFKNQWFCNSY (cysteine pairing not given here) [Isolate G08] | drops off very quickly as the amount of NA3 drops below 50 ng per well | – | –
CC(C)C[C@H](NC(=O)[C@H](CO)NC(=O)[C@H](CC(N)=O)NC(=O)[C@@H]1CSSC[C@H](NC(=O)[C@@H](NC(=O)[C@H](Cc2c[nH]c3ccccc23)NC(=O)[C@H](CC(=O)O)NC(=O)[C@@H](N)CO)C(C)C)C(=O)N[C@@H](CCC(=O)O)C(=O)N[C@@H](Cc2c[nH]c3ccccc23)C(=O)N[C@@H](CC(C)C)C(=O)N[C@@H](CCCCN)C(=O)N2CCC[C@H]2C(=O)N[C@@H](CCC(N)=O)C(=O)N[C@@H](Cc2c[nH]c3ccccc23)C(=O)N[C@@H](Cc2ccc(O)cc2)C(=O)N1)C(=O)N[C@@H](C)C(=O)N1CCC[C@H]1C(=O)NCC(=O)NCC(=O)N[C@@H](CCC(=O)O)C(=O)NCC(=O)NCC(=O)NCC(=O)N[C@@H](CO)C(=O)N[C@@H](CCCCNC(=O)c1ccc2c(c1)C(=O)OC21c2ccc(O)cc2Oc2cc(O)ccc21)C(N)=O [Isolate 315A-17-B12] (H-SDWVCEWLKPQWYCNSLAPGGEGGGSK(5FAM)-NH2; disulfide 5-14; N-terminus assumed) | – | did not appear to bind CEA | CEA KD (μM) direct binding (CEA; Table 10, commercial CEA, PBS with 0.01% TWEEN 20): (no binding)
CC[C@H](C)[C@H](NC(=O)[C@H](CC(N)=O)NC(=O)[C@@H]1CSSC[C@H](NC(=O)[C@@H](NC(=O)[C@H](Cc2c[nH]c3ccccc23)NC(=O)[C@H](CC(=O)O)NC(=O)[C@@H](N)CO)C(C)C)C(=O)N[C@@H](CCC(=O)O)C(=O)N[C@@H](Cc2ccccc2)C(=O)N[C@@H](Cc2ccccc2)C(=O)N[C@@H](CCCCN)C(=O)N[C@@H](CC(=O)O)C(=O)N[C@@H](CCC(N)=O)C(=O)N[C@@H](Cc2c[nH]c3ccccc23)C(=O)N[C@@H](Cc2ccccc2)C(=O)N1)C(=O)N[C@@H](CC(C)C)C(=O)N[C@@H](C)C(=O)N1CCC[C@H]1C(=O)NCC(=O)NCC(=O)N[C@@H](CCC(=O)O)C(=O)NCC(=O)NCC(=O)NCC(=O)N[C@@H](CO)C(=O)N[C@@H](CCCCNC(=O)c1ccc2c(c1)C(=O)OC21c2ccc(O)cc2Oc2cc(O)ccc21)C(N)=O [Isolate 315A-18-E02] (H-SDWVCEFFKDQWFCNILAPGGEGGGSK(5FAM)-NH2; disulfide 5-14; N-terminus assumed) | – | effectively bound CEA, but not as strongly as they bound NA3 | –
